According to publication PMC7026589, “Sensitive CometChip assay for screening potentially carcinogenic DNA adducts by trapping DNA repair intermediates” (Nucleic Acids Research, 2019):
Several values for one entry are separate records, joined by “and”; a condition that tells them apart may be missing. Equal values may be shown once. Read-outs that look alike come from different tables or passages of the source.

Columns and labels:
HepaRG™ cells [1] = test system: HepaRG™ cells
Source text: Cryopreserved HepaRG™ (HPRGC10), a terminally differentiated hepatic cell line, was purchased from ThermoFisher Scientific (Waltham, MA). HepaRG™ was thawed and cultured according to manufacturer's instructions. Briefly, the general purpose working medium was WEM supplemented with 1X GlutaMAX™ and 1X HepaRG™ Thaw, Plate, & General Purpose Medium Supplement. The metabolism working medium was WEM supplemented with 1X GlutaMAX™ and HepaRG™ Maintenance/Metabolism Medium Supplement. HepaRG™ cells were thawed in the general purpose working medium and plated in a 96-well plate coated with collagen I at 100 000 cells/well. One day after plating, the general purpose working medium was changed to the metabolism working medium. The metabolism working medium was renewed on day 4 and day 6 after plating. On day 7, the cells were treated in the metabolism working medium.
(§1) To load cells into microwells, ∼2000–200 000 cells in suspension were placed into each macrowell, and the chip was incubated at 37°C in the presence of 5% CO2 for 15 min. Cell were loaded into microwells by gravity, and excess cells were then washed off with PBS by shear force. The chip was covered with a layer of overlay agarose (1% w/v low-melting point agarose solution in PBS, kept molten at 43°C until use). For complete gelation of the overlay agarose, the chip was kept at room temperature for two minutes followed by 2 min at 4°C.
(§2) The alkaline comet assay was performed as previously ([15],[79]). Sodium chloride (NaCl, 7581), disodium EDTA (Na2EDTA, 4931), and sodium hydroxide pellets (NaOH, 7708) were purchased from VWR, Radnor, PA. Trizma® base (T1503), Trizma® HCl (T5941) and Triton X-100 (X-100) were obtained from MilliporeSigma, St. Louis, MO. 10 000× SYBR™ Gold nucleic acid gel stain was obtained from ThermoFisher Scientific, Waltham, MA.
(§3) The alkaline lysis buffer (pH ∼ 10) was a solution of 2.5 M NaCl, 100 mM Na2EDTA, 10 mM Trizma® base, and 1% (v/v) Triton X-100 dissolved in deionized H2O (dI H2O). […] The neutralization buffer (pH ∼ 7.5) was prepared by dissolving Trizma® HCl in distilled H2O to a final concentration of 0.4 M.
(§4) Cells encapsulated in CometChip were lysed in the alkaline lysis buffer overnight at 4°C. The nuclei were unwound in the alkaline unwinding buffer for 40 min at 4°C, and the DNA was electrophoresed in the same buffer at the same temperature for 30 min at 1 V/cm and ∼300 mA. The CometChip was then washed three times in neutralization buffer by submerging for 5 min each time.
(§5) The DNA on CometChip was stained for 15 min at room temperature with 1× of SYBR™ Gold diluted in PBS, protected from light. Fluorescent images of the comets were captured at 40× magnification using an epifluorescence microscope (Nikon Eclipse 80i, Nikon Instruments, Inc., Melville, NY, USA) with a 480 nm excitation filter. Image acquisition was achieved by automatic scanning using a motorized XY stage. Comet images were automatically analyzed using Guicometanalyzer, a custom software developed in MATLAB (The MathWorks Inc., Natick, MA, USA) as previously described ([15]). For each condition, 100 comets or more were analysed. Outputs from Guicometanalyzer were processed and imported to a spreadsheet (Microsoft Excel, Microsoft Office Suite 2016) using Comet2Excel, an in-house software developed in Python (Python Software Foundation, Python version 2.7.10). Software is freely available upon request.
For this experiment, the comets were analysed using Trevigen® Comet Analysis Software.
(§6) A vehicle control condition was included by diluting DMSO in cell culture medium to get a final concentration of 0.5%. Cells were incubated with the test compound for 24 h at 37°C in the presence of 5% CO2.
HepaRG™ were incubated with the test compound for 24 h at 37°C in the presence of 5% CO2. A vehicle control (1% DMSO) was included.

HepG2 cells = test system: HepG2 cells
Procedure: HepG2 (ATCC® HB-8065™), an immortalized cell line derived from human hepatocellular carcinoma, was obtained from the American Type Culture Collection (Manassas, VA). HepG2 cells were cultured in high-glucose DMEM supplemented with 10% FBS, 1× GlutaMAX™, and 100 U/ml Pen-Strep. For chemical exposures, exponentially growing cells were plated in a tissue cultured treated 96-well plate two days before treatment.
as §1, §2, §3, §4, §5, §6
HepG2 were incubated with the test compound for 24 h at 37°C in the presence of 5% CO2. A vehicle control (0.07% sodium bicarbonate) was included.
Cells embedded in CometChip were placed on ice and irradiated with 0, 0.9, 1.8, 3.6, 5.4, 7.2 and 9 Gy of gamma rays from a Cs 137 radiation source with a dose rate of 0.9 Gy/min. The irradiated cells were submerged into lysis buffer overnight and the alkaline CometChip assay performed as described above.

[2] = cited from earlier work
HepaRG™ cells [3] = assay type: cell-based, human
Procedure: The CTG® luminescent cell viability assay kit (G7570) was obtained from Promega, Madison, WI. Cell viability after 24 h of chemical treatment was measured according to the manufacturer's instructions. Luminescent signals were recorded using a SpectraMax M2e microplate reader (Molecular Devices, Sunnyvale, CA, USA) at room temperature. The emission bracket was from 360 to 750 nm. Control wells with no cells were included to obtain background luminescence, which was then subtracted from the signal measured in the sample wells.

[4] = 1 mM HU and 10 μM AraC, 24 h, doses with statistically significant result
[5] = 1 mM HU and 10 μM AraC, 24 h exposure

## Aflatoxin B1 [AFB1]
HepaRG™ cells [1]
  SSBs, dose-response: strong dose-response relationship
TK6 cells
  SSBs, response: no response
HepG2 cells
  Average % Tail DNA: 21.9% and 33.4%
  SSBs, dose-response: relatively small increase in SSBs

## O=P1(N(CCCl)CCCl)NCCCO1 (stereo not shown) [CP, Cyclophosphamide monohydrate]
HepaRG™ cells [1]
  DNA damage score: positives
  Genotoxicity Alkaline CometChip HepaRG (+ HU + AraC) +/−: +
  Genotoxicity Alkaline CometChip HepaRG +/−: −
HepaRG™ cells [1]; human
  Alkaline CometChip HepaRG (+ HU + AraC) ‘+’ dose range: 5 to 10 mM

## CN(C)N=O [NDMA, N-Nitrosodimethylamine]
HepaRG™ cells [1]; [4]
  Alkaline CometChip HepaRG (+ HU + AraC) ‘+’ dose range: 2.5 to 20 mM
HepaRG™ cells [1]; [5]
  Genotoxicity Alkaline CometChip HepaRG (+ HU + AraC) +/−: +
HepaRG™ cells [1]; HepaRG, in the absence of HU/AraC, 24 h
  DNA damage score: positive result
HepaRG™ cells [1]; without HU/AraC, 24 h, doses with statistically significant result
  Alkaline CometChip HepaRG ‘+’ dose range: 2.5 to 20 mM
HepaRG™ cells [1]; without HU/AraC, 24 h exposure
  Genotoxicity Alkaline CometChip HepaRG +/−: +
[2]
  Carcinogenicity IARC classification: Group 2A

## C[C@H]1[C@H](OC(=O)CCC(=O)O)O[C@@H]2O[C@@]3(C)CC[C@H]4[C@H](C)CC[C@@H]1[C@@]24OO3 [artesunate, Artesunate]
HepG2 cells; HepG2, 24 h, absence vs presence of 1 mM HU and 10 μM AraC
  DNA damaging potential: HU/AraC reveals a wider range of genotoxic artesunate doses

## COc1cc([C@@H]2c3cc4c(cc3[C@@H](O[C@@H]3O[C@@H]5CO[C@@H](C)O[C@H]5[C@H](O)[C@H]3O)[C@H]3COC(=O)[C@H]23)OCO4)cc(OC)c1O [Etoposide]
HepaRG™ cells [1]
  Genotoxicity Alkaline CometChip HepaRG (+ HU + AraC) +/−: +
  Genotoxicity Alkaline CometChip HepaRG +/−: −

## CC(=O)N1CCN(c2ccc(OCC3COC(Cn4ccnc4)(c4ccc(Cl)cc4Cl)O3)cc2)CC1 (stereo not shown) [KET, Ketoconazole]
HepaRG™ cells [1]
  DNA damage by inhibitor alone: does not induce DNA damage
  Level of AFB1-induced SSBs in the presence of KET: reduced to near background levels
TK6 cells
  DNA damage by inhibitor alone: does not induce DNA damage
HepG2 cells
  DNA damage by inhibitor alone: does not induce DNA damage

## N.N.[Cl][Pt][Cl] [Cisplatin, cis-Diamineplatinum(II) dichloride]
HepaRG™ cells [1]; HepaRG, using HU/AraC, 24 h
  DNA damage score: negative results
[2]
  Carcinogenicity IARC classification: Group 2A

## Oc1ccc(O)cc1 [HQ, Hydroquinone]
HepaRG™ cells [3]
  Cytotoxicity: high levels of cytotoxicity
HepaRG™ cells [1]
  Genotoxicity Alkaline CometChip HepaRG (+ HU + AraC) +/−: +
  Genotoxicity Alkaline CometChip HepaRG +/−: −
HepaRG™ cells [1]; human
  Alkaline CometChip HepaRG (+ HU + AraC) ‘+’ dose range: 0.33 mM

## O=C(N[C@H](CO)[C@H](O)c1ccc([N+](=O)[O-])cc1)C(Cl)Cl [CAM, Chloramphenicol]
HepaRG™ cells [3]; HepaRG, 24 h, CTG
  Cytotoxicity: high levels of cytotoxicity
HepaRG™ cells [1]; [4]
  Alkaline CometChip HepaRG (+ HU + AraC) ‘+’ dose range: 3.1 mM

## Nc1ccc(Cl)cc1 [PCA, p-Chloroaniline]
HepaRG™ cells [3]; HepaRG, highest dose (5 mM), 24 h
  Cell death: ~50%
HepaRG™ cells [1]; HepaRG, using HU/AraC, 24 h
  DNA damage score: negative results
[2]
  Carcinogenicity IARC classification: Group 2B

## OO [H2O2]
TK6 cells; TK6 cells, 50 μM H2O2
  Comets on alkaline CometChip (comet tails): visibly large tails

## Cc1ccc(N)cc1N [2,4-DAT, 2,4-Diaminotoluene]
HepaRG™ cells [1]; [4]
  Alkaline CometChip HepaRG (+ HU + AraC) ‘+’ dose range: 10 mM
HepaRG™ cells [1]; [5]
  Genotoxicity Alkaline CometChip HepaRG (+ HU + AraC) +/−: +
HepaRG™ cells [1]; without HU/AraC, 24 h exposure
  Genotoxicity Alkaline CometChip HepaRG +/−: −
[2]
  Carcinogenicity IARC classification: Group 2B
